The values below come from patent publication US12655150B2 (Cedilla Therapeutics, Inc., priority 2021, dated 2026).

The subject of one assay is NCI-H226. Put plainly: 72H TEAD Proliferation Assay (Cell Titer Glo 2.0). The conditions noted are these: CTG 2.0, cell line not given (NCI-H226 responsive, NCI-H28 non-responsive). It is filed as cell-based. The method, boiled down:
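Growth read-out is ATP luminescence (CellTiter-Glo 2.0) after 72 h compound exposure, corrected for no-CTG background and day-0 values, with GI50 from nonlinear regression. Sensitive line NCI-H226 (NF2-deficient); non-responsive NCI-H28 (NF2 wild type) distinguishes TEAD-driven from nonspecific growth inhibition.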
Usually GI50 stands for the concentration that inhibits growth by half. High values mean lower sensitivity of the cells, low ones greater sensitivity of the cells. For `CC(C)(C)c1ccc(-c2nc3cc(S(C)(=N)=O)ccc3n3cccc23)cc1` (single isomer, unassigned) [I-208, (4-(4-(tert-Butyl)phenyl)pyrrolo[1,2-a]quinoxalin-7-yl)(imino)(methyl)-16-sulfanone], the GI50 fell in the range of 1000 to 5000 nM.

The same assay, now with this note: Homo sapiens, NCI-H226, 72 h, CTG 2.0, cell line not given (NCI-H226 responsive, NCI-H28 non-responsive).
As for `COc1cc(-c2ccc(C(F)(F)F)cc2)nc2cc(C(=O)N[C@@H](C)c3cccc(N)c3)ccc12` [I-350, (S)—N-(1-(3-aminophenyl)ethyl)-4-methoxy-2-(4-(trifluoromethyl)phenyl)quinoline-7-carboxamide], the GI50 was at most 1000 nM.

With `CC(C)(C)c1ccc(-c2nc3cc(C(=O)NCCO)ccc3n3cccc23)cc1` [I-185, 4-(4-(tert-butyl)phenyl)-N-(2-hydroxyethyl)pyrrolo[1,2-a]quinoxaline-7-carboxamide], the GI50 lay within 1000 to 5000 nM.

The molecule `C=CC(=O)NCc1nc(-c2ccc(C(F)(F)F)cc2)c2ncccc2n1` [I-305, N-((4-(4-(trifluoromethyl)phenyl)pyrido[3,2-d]pyrimidin-2-yl)methyl)acrylamide] displayed a GI50 of at most 1000 nM.

Molecule `O=C(O)c1ccc2c(c1)nc(N1CCC3(CCOC3)CC1)c1cccn12` [I-35, 4-(2-Oxa-8-azaspiro[4.5]decan-8-yl)pyrrolo[1,2-a]quinoxaline-7-carboxylic acid] had a GI50 of 1000 to 5000 nM.

`O=C(O)c1ccc2c(c1)nc(-c1ccc(C(F)(F)F)cc1)c1cccn12` [I-42, 4-(4-(Trifluoromethyl)phenyl)pyrrolo[1,2-a]quinoxaline-7-carboxylic acid] showed a GI50 of at most 1000 nM.

Molecule `Cc1nc2ccc(C(=O)O)cc2nc1-c1ccc(C(F)(F)F)cc1` [I-422, 2-methyl-3-(4-(trifluoromethyl)phenyl)quinoxaline-6-carboxylic acid] registered a GI50 of 5000 to 10000 nM.

Consider `C=C(F)C(=O)NCc1cn2ccnc2c(-c2ccc(C(F)(F)F)cc2)n1` [I-178, 2-Fluoro-N-((8-(4-(trifluoromethyl)phenyl)imidazo[1,2-a]pyrazin-6-yl)methyl)acrylamide], for which the GI50 is at most 1000 nM.

As for `O=C(O)c1ccc2ccc(-c3ccc(C(F)(F)F)cc3)nc2c1` [I-403, 2-(4-(trifluoromethyl)phenyl)quinoline-7-carboxylic acid], the GI50 was 1000 to 5000 nM.

With `CC[C@H](CO)NC(=O)c1ccc2c(OC)cc(-c3ccc(C(F)(F)F)cc3C(F)(F)F)nc2c1` [I-338, (R)-2-(2,4-bis(trifluoromethyl)phenyl)-N-(1-hydroxybutan-2-yl)-4-methoxyquinoline-7-carboxamide], the GI50 is 1000 to 5000 nM.

`FC(F)(F)c1ccc(-c2nc3cc(-c4nnn[nH]4)ccc3n3cccc23)cc1` [I-184, 7-(1H-tetrazol-5-yl)-4-(4-(trifluoromethyl)phenyl)pyrrolo[1,2-a]quinoxaline] showed a GI50 of 5000 to 10000 nM.

Take `C=CC(=O)NCc1nc(-c2ccc(C(F)(F)F)cc2)c2ccn(C)c2n1` [I-292, N-((7-methyl-4-(4-(trifluoromethyl)phenyl)-7H-pyrrolo[2,3-d]pyrimidin-2-yl)methyl)acrylamide]: the GI50 was at most 1000 nM.

Consider `O=C(O)c1ccc2c(c1)nc(N1CCc3ccccc3C1)c1cccn12` [I-21, 4-(3,4-Dihydroisoquinolin-2(1H)-yl)pyrrolo[1,2-a]quinoxaline-7-carboxylic acid], for which the GI50 was over 10000 nM.

Molecule `O=C(O)c1ccc2c(c1)nc(N1CCC3(CC1)CC3)c1ccnn12` [I-277, 4-(6-azaspiro[2.5]octan-6-yl)pyrazolo[1,5-a]quinoxaline-7-carboxylic acid] came in with a GI50 of 1000 to 5000 nM.

`Cc1cc2c(-c3ccc(C(C)(C)C)cc3)nc3cc(C(=O)O)ccc3n2c1` [I-83, 4-(4-(tert-Butyl)phenyl)-2-methylpyrrolo[1,2-a]quinoxaline-7-carboxylic acid] gave a GI50 of 1000 to 5000 nM.

In the case of `CC(=O)c1cc(-c2ccc(C(F)(F)F)cc2)nc2cc(C(=O)O)ccc12` [I-396, 4-acetyl-2-(4-(trifluoromethyl)phenyl)quinoline-7-carboxylic acid], the GI50 lay in the range of 1000 to 5000 nM.

`O=C(O)c1ccc2c(c1)nc(NCCC(F)(F)C(F)(F)F)c1cccn12` [I-121, 4-((3,3,4,4,4-Pentafluorobutyl)amino)pyrrolo[1,2-a]quinoxaline-7-carboxylic acid] showed a GI50 of 1000 to 5000 nM.

With `O=C(O)c1ccc2c(c1)nc(N1CCC3(CCCOC3)CC1)c1cccn12` [I-26, 4-(2-Oxa-9-azaspiro[5.5]undecan-9-yl)pyrrolo[1,2-a]quinoxaline-7-carboxylic acid], the GI50 lay within 5000 to 10000 nM.

`O=C(O)c1ccc2c(c1)nc(N1CCCCC1)c1cccn12` [I-2, 4-(Piperidin-1-yl)pyrrolo[1,2-a]quinoxaline-7-carboxylic acid] registered a GI50 of over 10000 nM.

The molecule `C=CC(=O)Nc1ccc2c(C(F)(F)F)cc(-c3ccc(C(C)(C)C)cc3)nc2c1` [I-112, N-(2-(4-(tert-Butyl)phenyl)-4-(trifluoromethyl)quinolin-7-yl)acrylamide] returned a GI50 of 1000 to 5000 nM.

As for `COc1cc(-c2ccc(C(F)(F)F)cc2)nc2cc(C(=O)NC3(CO)CC3)ccc12` [I-353, N-(1-(hydroxymethyl)cyclopropyl)-4-methoxy-2-(4-(trifluoromethyl)phenyl)quinoline-7-carboxamide], the GI50 lay within 1000 to 5000 nM.

Take `O=C(O)c1cc(CO)c2c(c1)nc(N1CCC3(CC1)CC3)c1cccn12` [I-278, 9-(hydroxymethyl)-4-(6-azaspiro[2.5]octan-6-yl)pyrrolo[1,2-a]quinoxaline-7-carboxylic acid]: the GI50 lay within 1000 to 5000 nM.

The molecule `C=CC(=O)NCc1cn2ccnc2c(OCc2cccc(C(F)(F)F)c2)n1` [I-294, N-((8-((3-(trifluoromethyl)benzyl)oxy)imidazo[1,2-a]pyrazin-6-yl)methyl) acrylamide] returned a GI50 of 1000 to 5000 nM.

`C=CC(=O)Nc1ccc2c(c1)nc(-c1ccc(C(F)(F)F)cc1F)c1nccn12` [I-133, N-(4-(2-Fluoro-4-(trifluoromethyl)phenyl)imidazo[1,2-a]quinoxalin-7-yl)acrylamide] gave a GI50 of at most 1000 nM.

The molecule `COC(=O)/C=C/c1cn2ccnc2c(-c2ccc(C(C)(C)C)cc2)n1` [I-151, Methyl (E)-3-(8-(4-(tert-butyl)phenyl)imidazo[1,2-a]pyrazin-6-yl)acrylate] gave a GI50 of over 10000 nM.

As for `C=CC(=O)NCc1cn2cccc2c(-c2ccc(C(C)(C)C)cc2)n1` [I-111, N-((1-(4-(tert-butyl)phenyl)pyrrolo[1,2-a]pyrazin-3-yl)methyl)acrylamide], the GI50 is at most 1000 nM.

With `CC(C)(C)c1ccc(-c2nc3cc(C(=O)O)ccc3n3cc(SC(F)(F)F)cc23)cc1` [I-411, 4-(4-(tert-Butyl)phenyl)-2-((trifluoromethyl)thio)pyrrolo[1,2-a]quinoxaline-7-carboxylic acid], the GI50 fell in the range of 1000 to 5000 nM.

With `C=CC(=O)Nc1cn2cccc2c(-c2ccc(C3(C(F)(F)F)CC3)cc2)n1` [I-102, N-(1-(4-(1-(trifluoromethyl)cyclopropyl)phenyl)pyrrolo[1,2-a]pyrazin-3-yl)acrylamide], the GI50 was at most 1000 nM.

For the molecule `C=CC(=O)NCc1cn2ccnc2c(-c2ccc(C(F)(F)F)cc2F)n1` [I-175, N-((8-(2-Fluoro-4-(trifluoromethyl)phenyl)imidazo[1,2-a]pyrazin-6-yl)methyl)acrylamide], the GI50 is at most 1000 nM.

The molecule `CC(C)(C)C1CCN(c2nc3cc(C(=O)O)ccc3n3cccc23)CC1` [I-37, 4-(4-(tert-Butyl)piperidin-1-yl)pyrrolo[1,2-a]quinoxaline-7-carboxylic acid] yielded a GI50 of over 10000 nM.

In turn, `CC(C)(C)c1ccc(-c2nc(/C=C/C#N)cn3ccnc23)cc1` [I-154, (E)-3-(8-(4-(tert-Butyl)phenyl)imidazo[1,2-a]pyrazin-6-yl)acrylonitrile] had a concentration for 50% growth inhibition (GI50) of 1000 to 5000 nM.

`COc1cc(-c2ccc(C(F)(F)F)cc2)nc2cc(C(=O)NC(CO)C3CCOCC3)ccc12` (single isomer, unassigned) [I-368, N-(2-hydroxy-1-(tetrahydro-2H-pyran-4-yl)ethyl)-4-methoxy-2-(4-(trifluoromethyl)phenyl)quinoline-7-carboxamide] had a GI50 of 1000 to 5000 nM.

Regarding `CC(C)(C)c1ccc(-c2cnc3ccc(-c4nnn[nH]4)cc3n2)cc1` [I-160, 2-(4-(tert-Butyl)phenyl)-7-(1H-tetrazol-5-yl)quinoxaline], the GI50 was over 10000 nM.

In turn, `COc1cccc([C@H](C)NC(=O)c2ccc3c(OC)cc(-c4ccc(C(F)(F)F)cc4)nc3c2)c1` [I-348, (S)-4-methoxy-N-(1-(3-methoxyphenyl)ethyl)-2-(4-(trifluoromethyl)phenyl)quinoline-7-carboxamide] registered a GI50 of at most 1000 nM.

Molecule `O=C(O)c1ccc2c(c1)nc(-c1ccccc1)c1nccn12` [I-63, 4-Phenylimidazo[1,2-a]quinoxaline-7-carboxylic acid] came in with a GI50 of over 10000 nM.

Consider `COC/C=C/C(=O)NCc1cn2ccnc2c(-c2ccc(C(F)(F)F)cc2)n1` [I-219, (E)-4-methoxy-N-((8-(4-(trifluoromethyl)phenyl)imidazo[1,2-a]pyrazin-6-yl)methyl)but-2-enamide], for which the GI50 fell in the range of 1000 to 5000 nM.

Turning to `O=C(O)c1ccc2c(c1)nc(C13CC(C(F)(F)F)(C1)C3)c1cccn12` [I-272, 4-(3-(trifluoromethyl)bicyclo[1.1.1]pentan-1-yl)pyrrolo[1,2-a]quinoxaline-7-carboxylic acid], the GI50 lay in the range of 1000 to 5000 nM.

With `O=C(O)c1ccc2c(c1)nc(-c1ccc(C(F)(F)F)cc1)c1c(F)ccn12` [I-280, 3-fluoro-4-(4-(trifluoromethyl)phenyl)pyrrolo[1,2-a]quinoxaline-7-carboxylic acid], the GI50 was at most 1000 nM.

Consider `O=C(O)c1ccc2c(c1)nc(-c1ccc(C(F)(F)F)cn1)c1cccn12` [I-132, 4-(5-(Trifluoromethyl)pyridin-2-yl)pyrrolo[1,2-a]quinoxaline-7-carboxylic acid], for which the GI50 is at most 1000 nM.

The molecule `COc1cc(-c2ccc(C(F)(F)F)cc2)nc2cc(C(=O)N[C@@H](CO)c3ccccc3)ccc12` [I-345, (R)—N-(2-hydroxy-1-phenylethyl)-4-methoxy-2-(4-(trifluoromethyl)phenyl)quinoline-7-carboxamide] came in with a GI50 of at most 1000 nM.
